The results in this text go back to patent US20060270614A1, “Use of chalcones for the treatment of viral disorders” (priority 2005, published 2006).

This test concerns HSV-1. In words: HSV-1 assay: CPE inhibition in Vero cells, MTS dye uptake. The format is cell-based, herpes simplex virus-1. As to conditions: read-out: IC50 (inhibitory concentration at which the compound provides 50% CPE reduction). The protocol:
In vitro evaluation of anti-viral activity can be determined by plaque reduction as reported in J. Nat. Prod. (1990) 53, 340-344; or as described in Example 1. To pre-grown Vero cells (ATCC CCL-81 is added a virus suspension (ATCC VR-260) mixed with complete medium containing various concentrations of the test compound and the mixture is incubated until maximum cytopathic effect (CPE) is observed in the untreated virus control culture. The CPE inhibition is determined by adding a dye (MTS, (3-[4,5-dimethylthiazol-2-yl-5]-[3-carboxymethyoxyphenyl]-2-[4-sulfophenyl]-2H tetrazolium)) uptake procedure (Promega's Cell Titer Aqueous One Solution). This method measures cell viability and is based on the reduction of the tetrazolium-based MTS by mitochondrial enzymes of viable host cells to MTS formazan. The purple color of the MTS formazan is then measured spectrophotometrically. The optical density (OD) value of each culture is a function of the amount of formazan produced which is proportional to the number of viable cells.
Vero cells (ATCC CCL-81) are pregrown in 96-well tissue culture plates using Dulbecco's Modified Eagle's Medium (DMEM) supplemented with 10% heat-inactivated fetal bovine serum (FBS), L-Glutamine, penicillin, and streptomycin.
To each of the replicate cell cultures is added 50 μL of the test article solution and 50 μL of virus suspension (ATCC VR-260). The multiplicity of infection used is about 0.05 plaque-forming unit (PFU) per cell. Cell controls containing medium alone, virus-infected controls containing medium and virus, drug cytotoxicity controls containing medium and each drug concentration, reagent controls containing culture medium only (no cells), and the test article colorimetric controls containing the test article and medium (no cells) are run simultaneously with the test samples. The plates are incubated at 37° C. in a humidified atmosphere containing 5% CO2 until maximum CPE (cytopathic effect) is observed in the untreated virus control cultures (Day 5).
CPE inhibition is determined by a dye (MTS) uptake procedure (Promega's Cell Titer Aqueous One Solution). This method measures cell viability and is based on the reduction of the tetrazolium-based MTS by mitochondrial enzymes of viable host cells to MTS formazan. MTS (10 μl) is added to each of the plate wells. The plates are incubated at 37° C. for 4 hours. The purple color of the MTS formazan is then measured spectrophotometrically at 490/650 nm. The optical density (OD) value of each culture is a function of the amount of formazan produced which is proportional to the number of viable cells.
The percent of CPE (cytopathic effect) reduction of the virus-infected wells (antiviral efficacy) and the percent cell viability of uninfected drug control wells (cytotoxicity) are calculated. […]

The mark [1] stands for this setting: Human alphaherpesvirus 1, 120 h, Vero cells (ATCC CCL-81), virus ATCC VR-260, about 0.05 PFU per cell, Day 5, MTS.

Read-outs that look alike come from different tables or passages of the source. Where only a bound is given, the exact number is not on record here.

Consider `O=C(/C=C/c1ccc(O)c(O)c1)c1ccc(O)cc1O` [2′,3,4,4′-Tetrahydroxychalcone], for which, under setting [1], the IC50 is 26.6 µM.
Turning to `COc1ccc(/C=C/C(=O)c2ccc(O)cc2O)cc1OC` [2′,4′-Dihydroxy-3,4-dimethoxychalcone], the IC50 (Human alphaherpesvirus 1, Vero, 120 h) was 8.36 µM.
Take `COc1ccc(/C=C/C(=O)c2ccc(O)cc2O)cc1` [2′,4′-Dihydroxy-4-methoxychalcone]: the IC50 under setting [1] is 11.1 µM.
As for `O=C1/C(=C/c2ccc(O)c(O)c2)Oc2cc(O)ccc21` [(Z)-2-(3,4-Dihydroxybenzylidene)-6-hydroxybenzofuran-3(2H)-one, reference compound], the IC50 under setting [1] was over 100 µM.
